Values of other authors as cited in patent US20120121653A1, “Novel mometasone compositions and methods of making and using the same” (Elan Pharma International Limited, priority 2005, published 2012).
Where two headings read alike, the source gives them in different places.

Experiments:
[1] = not given; remark: listed apart in the source

partition coefficient between octanol and water: greater than 5000 | solubility ([1]; in acetone): soluble | solubility ([1]; in chloroform): soluble | solubility ([1]; in ethanol): slightly soluble | solubility ([1]; in isopropanol): slightly soluble | solubility ([1]; in methanol): slightly soluble | solubility ([1]; in tetrahydrofuran): freely soluble | solubility ([1]; in water): practically insoluble
Structure (SMILES): C[C@@H]1C[C@H]2[C@@H]3CCC4=CC(=O)C=C[C@]4(C)[C@@]3(Cl)[C@@H](O)C[C@]2(C)[C@@]1(OC(=O)c1ccco1)C(=O)CCl [Mometasone furoate monohydrate, 9,21-Dichloro-11, β,17-di-hydroxy-16^α-methylpregna-1,4-diene-3 ,20-done 17-(2 furoate)]
